Data: PubChem BioAssay (NCI)
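Cells were grown in 96-well plates and exposed to each compound for 48 hours at five concentrations; endpoints were interpolated linearly between bracketing concentrations, or set to the highest concentration if not reached. GI50 marks 50% less growth. TGI: concentration producing complete growth inhibition.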

Experiments:
Test in all cases: NCI tumour cell line growth inhibition, 48 h
786-0 renal = system: 786-0 renal
A498 renal = system: A498 renal
A549 NSCLC = system: A549 NSCLC
ACHN renal = system: ACHN renal
BT-549 breast = system: BT-549 breast
CAKI-1 renal = system: CAKI-1 renal
CCRF-CEM leukemia = system: CCRF-CEM leukemia
COLO 205 colon = system: COLO 205 colon
DU-145 prostate = system: DU-145 prostate
EKVX NSCLC = system: EKVX NSCLC
HCT-116 colon = system: HCT-116 colon
HCT-15 colon = system: HCT-15 colon
HL-60(TB) leukemia = system: HL-60(TB) leukemia
HOP-62 NSCLC = system: HOP-62 NSCLC
HS 578T breast = system: HS 578T breast
HT29 colon = system: HT29 colon
IGROV1 ovarian = system: IGROV1 ovarian
K-562 leukemia = system: K-562 leukemia
KM12 colon = system: KM12 colon
LOX IMVI melanoma = system: LOX IMVI melanoma
M14 melanoma = system: M14 melanoma
MALME-3M melanoma = system: MALME-3M melanoma
MCF7 breast = system: MCF7 breast
MDA-MB-231 breast = system: MDA-MB-231 breast
MDA-MB-435 = system: MDA-MB-435
MOLT-4 leukemia = system: MOLT-4 leukemia
NCI-H226 lung = system: NCI-H226 lung
NCI-H23 lung = system: NCI-H23 lung

SMILES: Cc1ccc(/C(=N/NS(=O)(=O)c2ccc([N+](=O)[O-])cc2)Sc2cc(Cl)c(C)cc2S(N)(=O)=O)cc1
- GI50 (786-0 renal): > 100 µM
- TGI (786-0 renal): > 100 µM
- GI50 (A498 renal): > 100 µM
- TGI (A498 renal): > 100 µM
- GI50 (A549 NSCLC): > 100 µM
- TGI (A549 NSCLC): > 100 µM
- GI50 (ACHN renal): > 100 µM
- TGI (ACHN renal): > 100 µM
- GI50 (BT-549 breast): > 100 µM
- TGI (BT-549 breast): > 100 µM
- GI50 (CAKI-1 renal): > 100 µM
- TGI (CAKI-1 renal): > 100 µM
- GI50 (CCRF-CEM leukemia): > 100 µM
- TGI (CCRF-CEM leukemia): > 100 µM
- GI50 (COLO 205 colon): > 100 µM
- TGI (COLO 205 colon): > 100 µM
- GI50 (DU-145 prostate): > 100 µM
- TGI (DU-145 prostate): > 100 µM
- GI50 (EKVX NSCLC): > 100 µM
- TGI (EKVX NSCLC): > 100 µM
- GI50 (HCT-116 colon): > 100 µM
- TGI (HCT-116 colon): > 100 µM
- GI50 (HCT-15 colon): > 100 µM
- TGI (HCT-15 colon): > 100 µM
- GI50 (HL-60(TB) leukemia): > 100 µM
- TGI (HL-60(TB) leukemia): > 100 µM
- GI50 (HOP-62 NSCLC): > 100 µM
- TGI (HOP-62 NSCLC): > 100 µM
- GI50 (HS 578T breast): > 100 µM
- TGI (HS 578T breast): > 100 µM
- GI50 (HT29 colon): > 100 µM
- TGI (HT29 colon): > 100 µM
- GI50 (IGROV1 ovarian): > 100 µM
- TGI (IGROV1 ovarian): > 100 µM
- GI50 (K-562 leukemia): > 100 µM
- TGI (K-562 leukemia): > 100 µM
- GI50 (KM12 colon): > 100 µM
- TGI (KM12 colon): > 100 µM
- GI50 (LOX IMVI melanoma): > 100 µM
- TGI (LOX IMVI melanoma): > 100 µM
- GI50 (M14 melanoma): > 100 µM
- TGI (M14 melanoma): > 100 µM
- GI50 (MALME-3M melanoma): 11.9 µM
- TGI (MALME-3M melanoma): > 100 µM
- GI50 (MCF7 breast): > 100 µM
- TGI (MCF7 breast): > 100 µM
- GI50 (MDA-MB-231 breast): 27.3 µM
- TGI (MDA-MB-231 breast): > 100 µM
- GI50 (MDA-MB-435): > 100 µM
- TGI (MDA-MB-435): > 100 µM
- GI50 (MOLT-4 leukemia): > 100 µM
- TGI (MOLT-4 leukemia): > 100 µM
- GI50 (NCI-H226 lung): > 100 µM
- TGI (NCI-H226 lung): > 100 µM
- GI50 (NCI-H23 lung): > 100 µM
